We go through 13 molecules from PubChem BioAssay (NCI).

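A five-concentration, 48-hour dose response in 96-well plates underlies each endpoint, interpolated linearly between surrounding concentrations. TGI marks complete inhibition of growth.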 Some results are limits rather than exact numbers.

Among the test systems are 786-0 renal; A549 NSCLC; EKVX NSCLC; HL-60(TB) leukemia; HT29 colon; LOX IMVI melanoma; MCF7 breast; MDA-MB-435; MDA-N; MOLT-4 leukemia; NCI-H460 lung; OVCAR-3 ovarian; OVCAR-8 ovarian; SK-OV-3 ovarian; TK-10 renal; UACC-257 melanoma; UO-31 renal; SNB-75 CNS.
Holding throughout (test): DTP human tumour cell line panel, 48 h

`c1ccc(C2OCC(OC3CCCCO3)CO2)cc1` (stereo unspecified): the TGI in the assay with 786-0 renal, in the assay on A549 NSCLC, in the assay with EKVX NSCLC, with HL-60(TB) leukemia, in the assay on HT29 colon and in the assay with LOX IMVI melanoma was above 100 µM throughout. Besides, the TGI is above 100 µM in the assay on MCF7 breast; above 100 µM in the assay with MDA-MB-435; above 100 µM with MDA-N; 68.2 µM in the assay on MOLT-4 leukemia; above 100 µM with NCI-H460 lung; above 100 µM with OVCAR-3 ovarian. For the same molecule, the TGI with OVCAR-8 ovarian, in the assay with SK-OV-3 ovarian, in the assay on TK-10 renal, in the assay with UACC-257 melanoma and with UO-31 renal was above 100 µM throughout.

On to `CCOC(=O)Nc1nn(C)c(=NCc2ccccc2)s1`, for which the TGI in the assay on 786-0 renal, with A549 NSCLC, in the assay with EKVX NSCLC, in the assay on HL-60(TB) leukemia, in the assay on LOX IMVI melanoma and in the assay with MCF7 breast was above 100 µM throughout. Also, the TGI in the assay on MDA-MB-435, in the assay on MDA-N, in the assay on MOLT-4 leukemia, in the assay on NCI-H460 lung, with OVCAR-3 ovarian and in the assay on SK-OV-3 ovarian was above 100 µM throughout. Also, the TGI in the assay on SNB-75 CNS, in the assay on TK-10 renal, in the assay with UACC-257 melanoma and with UO-31 renal was above 100 µM throughout.

For the molecule `CC1=N[C@](C)(C2CC3C=CC2C3=O)COC1=O` (stereo partly specified), the TGI in the assay with 786-0 renal, with A549 NSCLC, in the assay on EKVX NSCLC, with HL-60(TB) leukemia, in the assay on HT29 colon and in the assay on MCF7 breast was above 100 µM throughout. Also, the TGI in the assay with MDA-MB-435, with MDA-N, in the assay on MOLT-4 leukemia, with NCI-H460 lung, with OVCAR-3 ovarian and with OVCAR-8 ovarian was above 100 µM each time. Moreover, the TGI in the assay on SK-OV-3 ovarian, with SNB-75 CNS, in the assay with TK-10 renal, with UACC-257 melanoma and with UO-31 renal was above 100 µM in each case.

For the molecule `Cn1cnc(N2CCCC2)c(C#N)c1=O`, the TGI in the assay on 786-0 renal, in the assay with A549 NSCLC, in the assay with EKVX NSCLC, in the assay on HL-60(TB) leukemia, in the assay on HT29 colon and with LOX IMVI melanoma was above 100 µM in each case. Besides, the TGI in the assay with MCF7 breast, in the assay with MDA-MB-435, in the assay with MDA-N, in the assay on MOLT-4 leukemia, in the assay with NCI-H460 lung and in the assay on OVCAR-3 ovarian was above 100 µM in each case. The total growth inhibition concentration (TGI) in the assay with OVCAR-8 ovarian, with TK-10 renal, in the assay on UACC-257 melanoma and in the assay with UO-31 renal was above 100 µM in each case.

Regarding `O=C(CCCN1CCC2(CC1)CC(=O)N(N1CCCCCC1)C2=O)c1ccc(F)cc1`, the TGI was 38.1 µM in the assay on 786-0 renal; above 100 µM with A549 NSCLC; above 100 µM in the assay with EKVX NSCLC; above 100 µM in the assay with HL-60(TB) leukemia; 33.8 µM in the assay on HT29 colon; above 100 µM with LOX IMVI melanoma. The TGI is above 100 µM in the assay on MCF7 breast; above 100 µM with MDA-MB-435; above 100 µM in the assay on MDA-N; above 100 µM in the assay on MOLT-4 leukemia; above 100 µM with OVCAR-3 ovarian; 34.7 µM in the assay with OVCAR-8 ovarian. In addition, the TGI in the assay on SK-OV-3 ovarian, in the assay on SNB-75 CNS, with TK-10 renal, with UACC-257 melanoma and in the assay on UO-31 renal was above 100 µM in each case.

Consider `N#Cc1[nH]c(=O)n(-c2cccc3ccccc23)c1N`, for which the TGI with 786-0 renal, in the assay with A549 NSCLC, with EKVX NSCLC, with HL-60(TB) leukemia, in the assay on HT29 colon and in the assay with LOX IMVI melanoma was above 10 µM each time. Also, the TGI in the assay on MCF7 breast, in the assay on MDA-MB-435, with MDA-N, in the assay on MOLT-4 leukemia, in the assay with NCI-H460 lung and in the assay on OVCAR-3 ovarian was above 10 µM each time. The TGI in the assay on OVCAR-8 ovarian, in the assay on SK-OV-3 ovarian, in the assay with TK-10 renal and in the assay with UACC-257 melanoma was above 10 µM throughout.

As for `COc1ccc(C2(O)c3ccccc3C(=O)N(C)C2(O)c2ccc(OC)cc2)cc1` (stereo unspecified), the TGI with 786-0 renal, in the assay with A549 NSCLC, in the assay with EKVX NSCLC, in the assay on HL-60(TB) leukemia, in the assay with HT29 colon and in the assay on LOX IMVI melanoma was above 100 µM each time. In addition, the TGI was above 100 µM in the assay on MCF7 breast; 42.2 µM with MDA-MB-435; 38.1 µM with MDA-N; above 100 µM with MOLT-4 leukemia; above 100 µM in the assay on NCI-H460 lung; above 100 µM in the assay with OVCAR-3 ovarian. Further, the TGI with OVCAR-8 ovarian, with SK-OV-3 ovarian, in the assay on TK-10 renal, with UACC-257 melanoma and with UO-31 renal was above 100 µM throughout.

In the case of `Nc1ncnc2c1cnn2Cc1cn(COCC(O)CO)nn1` (stereo unspecified), the TGI in the assay on 786-0 renal, in the assay with A549 NSCLC, with EKVX NSCLC, with HL-60(TB) leukemia, in the assay on HT29 colon and with LOX IMVI melanoma was above 100 µM in each case. For the same molecule, the TGI with MCF7 breast, with MDA-MB-435, in the assay on MDA-N, in the assay on OVCAR-3 ovarian, with OVCAR-8 ovarian and in the assay on SK-OV-3 ovarian was above 100 µM in each case. Besides, the TGI in the assay with TK-10 renal, in the assay on UACC-257 melanoma and in the assay with UO-31 renal was above 100 µM throughout.

As to `COc1cc(/C=C2\C(=O)N(Cc3ccccc3)C(c3ccccc3)S2(=O)=O)cc(OC)c1OC` (stereo unspecified), the TGI in the assay on 786-0 renal was above 100 µM; with A549 NSCLC, above 100 µM; in the assay with EKVX NSCLC, above 100 µM; in the assay on HL-60(TB) leukemia, 44.9 µM; in the assay on HT29 colon it was above 100 µM; in the assay on LOX IMVI melanoma, above 100 µM. Moreover, the TGI with MCF7 breast was above 100 µM; with MDA-MB-435 it was above 100 µM; in the assay on MDA-N, above 100 µM; in the assay with MOLT-4 leukemia, 14.7 µM; with NCI-H460 lung it was above 100 µM; in the assay on OVCAR-3 ovarian it was above 100 µM. Further, the TGI in the assay on OVCAR-8 ovarian, in the assay on SK-OV-3 ovarian, in the assay with TK-10 renal, with UACC-257 melanoma and in the assay with UO-31 renal was above 100 µM in each case.

Consider `O=C(/C=C/c1ccc(Cl)cc1)c1cccs1`, for which the TGI is 30 µM with 786-0 renal; 83.5 µM with A549 NSCLC; 68 µM in the assay with EKVX NSCLC; 29.8 µM in the assay with HL-60(TB) leukemia; above 100 µM with HT29 colon; 24.3 µM in the assay on LOX IMVI melanoma. Moreover, the TGI with MCF7 breast was determined as 15.8 µM; with MDA-MB-435, 25.9 µM; in the assay with MDA-N, 31.6 µM; in the assay on MOLT-4 leukemia, 52.8 µM; in the assay on NCI-H460 lung, 35.4 µM; with OVCAR-8 ovarian, 56.2 µM. The TGI is 77 µM in the assay on SK-OV-3 ovarian; 43.4 µM with SNB-75 CNS; 47 µM in the assay with TK-10 renal; 37.4 µM in the assay on UACC-257 melanoma; 31.9 µM in the assay on UO-31 renal.

With `CC(C)CC(NC(=O)C(CCI)Cc1ccccc1)C(=O)Nc1ccccc1` (stereo unspecified), the TGI in the assay on 786-0 renal was above 100 µM; in the assay on A549 NSCLC, above 100 µM; in the assay on EKVX NSCLC it was above 100 µM; in the assay on HL-60(TB) leukemia, 64.6 µM; with LOX IMVI melanoma, above 100 µM; with MCF7 breast, above 100 µM. In addition, the concentration for total growth inhibition (TGI) is above 100 µM with MDA-MB-435; above 100 µM in the assay with MDA-N; 83.6 µM with MOLT-4 leukemia; above 100 µM in the assay on NCI-H460 lung; above 100 µM in the assay with OVCAR-3 ovarian; above 100 µM in the assay on OVCAR-8 ovarian. Further, the TGI was above 100 µM in the assay on SK-OV-3 ovarian; above 100 µM in the assay with SNB-75 CNS; above 100 µM with TK-10 renal; above 100 µM with UACC-257 melanoma; 84.7 µM with UO-31 renal.

`Cc1ccc(S(=O)(=O)NNC2(NS(=O)(=O)c3ccc(Cl)cc3)C(Cl)=C(Cl)C(=O)c3ccccc32)cc1` (stereo unspecified): the TGI was determined as 28.2 µM in the assay on 786-0 renal; 34.2 µM with A549 NSCLC; 28.9 µM with EKVX NSCLC; 37.4 µM in the assay with HL-60(TB) leukemia; 35.1 µM in the assay on HT29 colon; 65.1 µM in the assay on LOX IMVI melanoma. The TGI in the assay with MCF7 breast was 37.3 µM; with MDA-MB-435 it was 36 µM; in the assay on MDA-N, 32.2 µM; in the assay with MOLT-4 leukemia, above 100 µM; in the assay on NCI-H460 lung it was 38.1 µM; in the assay on OVCAR-3 ovarian, 42.1 µM. In addition, the TGI with OVCAR-8 ovarian is 87.8 µM; in the assay with SK-OV-3 ovarian, 32.2 µM; in the assay on TK-10 renal, 30.5 µM; in the assay on UACC-257 melanoma, 32.6 µM; in the assay with UO-31 renal it was 42.5 µM.

With `O=C1C(=Nc2ccccc2)Oc2cc(O)ccc21`, the TGI with 786-0 renal, with A549 NSCLC, in the assay on EKVX NSCLC, in the assay on HT29 colon, in the assay with LOX IMVI melanoma and in the assay on MCF7 breast was above 100 µM in each case. Besides, the TGI in the assay with MDA-MB-435, in the assay with MDA-N, in the assay on MOLT-4 leukemia, in the assay on NCI-H460 lung, in the assay on OVCAR-3 ovarian and in the assay on OVCAR-8 ovarian was above 100 µM in each case. In addition, the TGI in the assay on SK-OV-3 ovarian, in the assay with SNB-75 CNS, in the assay on TK-10 renal, in the assay on UACC-257 melanoma and in the assay with UO-31 renal was above 100 µM in each case.
